In series [1] the test system is FALS mice (Gurney GI strain). The experiment in a line: Survival in a transgenic model of amyotrophic lateral sclerosis. The settings on record: 15 mg/kg/day, intraperitoneal mini-osmotic pumps from 10 weeks of age. In kind it is in vivo. Here is the method: The G1 line, with 18 copies and 4 times the SOD activity of wildtype animals, develops motor neuron death by 3-4 months of age, with hindlimb weakness, impaired grooming, and thinning along their flanks. Affected mice were dead before 5 months of age (Gurney et al., 1994).
C60(C(COOH)2)3 was used to treat FALS mice (Gurney GI strain) to determine its ability to treat FALS. At 10 weeks of age, Alzet mino-osmotic pumps (28 day, 6 (l/day, 15 mg/kg/day) containing C60(C(COOH)2)3 (the mixed isomers, which consist of >90% O-3a) or saline were implanted intraperitoneally. The pumps were replaced at 14 weeks of age. Videotaped assessments of open field walking were performed and scored using the Bresnahan scale for spinal cord injury (Basso et al., 1995). As reported by Gurney and colleagues, these animals develop motor symptoms by approximately 90 days of age, and are moribund between 125 and 145 days of age.
The 8 day increase in survival reached statistical significance (p=0.041), by t-test. There was no difference in survival for FALS mice who received no pumps (123 days, n=4) or those treated with saline-filled pumps (125 days, n=6).

The test system of series [2] is cortical neurons. The experiment in a line: NMDA excitotoxic neuronal injury in neuron-astrocyte co-cultures (LDH efflux). In kind it is cell-based, Mouse. The settings on record: for reduction of neuronal death from NMDA: 300(M, co-applied with NMDA for 10 minutes, assessed at 24 hours), all experiments performed to date. Here is the method: (§1) Mouse neocortical cultures were prepared as neuron-astrocyte co-cultures (approximately 50% astrocytes) (Rose et al., 1992) or as neuronal cultures (< 2% astrocytes). Mouse embryos (gestational day 15) are removed from pregnant anesthetized Swiss-Webster mice, and the neocortex is dissected away from other brain structures. After brief incubation in trypsin, the cells are dissociated by trituration, and the cell suspension is then diluted into plating medium and plated onto previously-prepared 24-well Plastek culture plates coated with poly-D-lysine/laminin (for neuronal cultures) or onto an existing bed of astrocytes (for co-cultures). After 1-2 days in vitro, a partial exchange with glial conditioned medium is made for "pure" neuronal cultures, and cytosine arabinoside (3µM) is added immediately after feeding to inhibit glial proliferation. Mixed cultures are fed biweekly with growth medium until 11-12 days in vitro, when they are fed with serum-free MS containing 2 mM L-glutamine. Unless otherwise stated, cells were used at 14-16 days in vitro.
Carboxyfullerene (3-300 (M) was co-applied to neuron-astrocyte co-cultures described above with NMDA for assessment of neuroprotection. Brief exposure to NMDA in the presence of the carboxyfullerene was carried out by triple exchange of the medium with HBBSS, followed by addition of 50µM- 500µM NMDA plus carboxyfullerene for 10 minutes. The NMDA and carboxyfullerene were removed by quadruple exchange of the medium with MS, and the cultures were placed in the humidified, CO2 (5%), 37°C incubator for 24 hours, when the extent of injury was assessed.
Neuronal death was assessed at 24 hours after NMDA or AMPA administration by phase contrast microscopy at 200-400x, and by measurement of lactate dehydrogenase (LDH) efflux from dying cells into the bathing medium (Koh and Choi, 1987). Quantitation of cell death was confirmed in some experiments by trypan blue or propidium iodide staining and cell counting.

A short description of series [3]: Solubility in water / aqueous solution. In kind it is physicochemical. The text has this:
Solutions of carboxyfullerene were translucent brown.

Series [4] has as its system wild-type animals. Description: Tolerability in wild-type animals treated two months. In kind it is in vivo, mice. The conditions noted are these: 15 mg/kg/day.
For series [5], the system named is NMDA receptors. The experiment in a line: 45Ca2+ tracer experiments, NMDA-stimulated calcium accumulation in cultured neurons. In kind it is cell-based, Mouse. The settings on record: co-application of up to 300 (M with NMDA (300 (M), 10 minutes)). The procedure: To verify that protection against NMDA-induced neuronal cell injury was not due to a reduction in NMDA-induced calcium influx, ^45Ca^2+ tracer studies were performed. Cultures were washed twice with HBBSS and then exposed to NMDA (300 (M), either alone or with C60(C(COOH)2)3, in HBBSS containing tracer ^45Ca^2+ (0.5 (Ci/culture well; NEN, Boston, MA). The exposure was terminated after 10 minutes by exchanging the medium four times with unlabelled HBBSS, followed by lysis of the cells by addition of 0.2% sodium dodecyl sulfate (SDS). The cells were left in SDS for 2 hours, and the lysate was then transferred to scintillation vials. An additional wash of each culture well with SDS was added to the vial, which then underwent (-counting.

Series [6] deals with Cortical neurons in glia-deficient culture. The experiment in a line: Serum deprivation apoptotic neuronal death in glia-deficient cultures (trypan blue cell counting). In kind it is cell-based, Mouse. The conditions noted are these: 10 (M, 48 hours after onset of serum-deprivation); 10 µM. Here is the method:
as §1, with “vitro. […]” for “vitro.”
Additionally, neuronal cell death was determined at 48 hours removal of serum by counting cells that are no longer able to exclude trypan blue.

Series [7] deals with cortical neurons. The experiment in a line: AMPA excitotoxic neuronal injury in neuron-astrocyte co-cultures (LDH efflux). In kind it is cell-based, Mouse. Here is the method:
as §1, with “Mouse” for “Mouse neocortical cultures were prepared as neuron-astrocyte co-cultures (approximately 50% astrocytes) (Rose et al., 1992) or as neuronal cultures (< 2% astrocytes). Mouse”

Series [8] can be described thus: Spin-label/EPR membrane experiments (5- or 16-doxyl ketostearic acid in brain lipids). In kind it is physicochemical, mouse. The conditions noted are these: for Lipid/aqueous partition factor: f = hL/hA, measured for 16-doxylstearic acid. The procedure:
Values are mean ± SEM, n=8-12 per conditions. * = p<0.05 vs. untreated injury condition, using ANOVA followed by Student-Newman-Keuls test for multiple comparisons. ** = p<0.05 R-3b different than O-3a. […] The spin labels were added to lipids extracted from adult mouse brain at a ratio of 1:100. EPR settings were the same as those listed in the legend for Figure 9. Both isomers produce a shift in the order parameter (S) of the 5-doxyl group, but O-3a produced a greater change in S (Table 1).

Series [9] deals with hepatocytes. Description: Protection from injury in hepatocytes. In kind it is cell-based. The settings on record: compared with R-3b.
In series [10] the test system is endothelial cell cultures. Description: Protection from injury in endothelial cell cultures. In kind it is cell-based. The settings on record: compared with R-3b.
The nature of series [11]: Spin-trap (DMPO) electron paramagnetic resonance spectroscopy, hydroxyl radical scavenging. The settings on record: for scavenging of •OH by EPR: •OH from 100 µM H2O2 in Fe2+ (Fenton reaction), 100 mM DMPO, 4 µM compound. Here is the method:
Hydroxyl radical (spectra on left): ^•OH in the presence of DMPO alone (top), in the presence of 4 µM O-3a (middle), or in the presence of 4 µM R-3b (bottom). Superoxide radical (right): O2^•- in DMPO alone (top), in the presence of 400 µM O-3a (middle), in the presence of 400 µM R-3b (bottom). The arrow designates a spurious signal due to an unknown radical in the cavity. The sample was analyzed in a quartz flat cell (60 x 10 x 0.25 mm) in a Bruker 200, X-band EPR spectrometer. Settings were power = 1.6 mW, modulation = 1 G, field modulation = 100 Hz, R.G. = 3.2x10^5.

The nature of series [12]: Spin-trap (DMPO) electron paramagnetic resonance spectroscopy, superoxide radical scavenging (xanthine + xanthine oxidase). The conditions noted are these: compound co-incubated with xanthine oxidase and xanthine.

As for C60(C(COOH)2)3, in [1], the onset of symptoms entry is “delay in onset of symptoms”. In series [1] (versus saline, p = 0.041, mixed isomers, >90% O-3a), this substance had a delay in death of 8 ± 2.2 days. The entries for the “reduction of neuronal death from NMDA” value in series [2] and in [2] (300 µM) were “nearly complete protection” and “at least 60%”, respectively. Moreover, the “reduction in neuronal cell death (NMDA)” value in [2] (pooled data from three experiments (Fig. 5)) amounted to 75%. In addition, the soluble in water result in series [3] is “at least 50 mM”. Moreover, the “adverse health or behavioral effects” value in series [4] (n=6) is “no adverse health or behavioral effects”. For the same substance, in series [4] (within genders), the “weights versus untreated littermates” value was “similar”. Further, the “45Ca2+ accumulation” value in series [5] is “not affected”. In addition, the “reduction in neuronal death (serum deprivation)” value in series [6] worked out at 50%. Also, the “reduction of neuronal cell death from AMPA” value in series [7] (100 (M, 24 hours exposure, MK-801 (10 (M) included, data from 4 experiments pooled)), 100 µM) was above 80%.
The substance C60(C(COOH)2)3 [Compound O-3a] came in with a Lipid/aqueous partition factor in series [8] of 1.0 ± 0.2. In addition, in series [8] (inferred from order parameter and 16-doxyl signal), the “entry into the lipid bilayer” value is recorded as “to a greater extent than R-3b”. The “protection from injury in hepatocytes” value in series [9] is recorded as “enhanced protection over R-3b”. Also, the “protection from injury in endothelial cell cultures” value in series [10] was “enhanced protection over R-3b”. In series [2] (Fig. 10 A, n=8-12 per condition), the “protection from injury produced by application of NMDA, compared with R-3b” value is “slightly better protection”. In series [11] (150 (M compound included with H2O2, 15 minute period)), the “hydroxyl radical (spin adduct DMPO-OH) EPR signal” value was “elimination of this OH signal”. For the same substance, the “scavenging of •OH by EPR” value in [11] is on record as “extremely potent scavengers”. For the same substance, in [12], the “superoxide radical (spin adduct DMPO-OOH) EPR signal” value is “eliminated the superoxide radical signal”. For the same substance, the “protection against AMPA-induced neuronal death, compared with R-3b” value in series [7] (Fig. 10 B, n=8-12 per condition) was “substantially better protection”.
Substance C60(C(COOH)2)3 [Compound R-3b] yielded a Lipid/aqueous partition factor in [8] of 0.6. Further, the “neuroprotective activity (in words)” value in series [2] (excitotoxic injury by NMDA and AMPA, insult not stated separately) is recorded as “effective neuroprotectant”. For the same substance, the “scavenging of •OH by EPR” value in [11] is “extremely potent scavengers”. The “superoxide radical (spin adduct DMPO-OOH) EPR signal” value in series [12] is reported as “eliminated the superoxide radical signal”.

Values taken from patent EP0904070B1, “THE USE OF BUCKMINSTERFULLERENE FOR TREATMENT OF NEUROTOXIC INJURY” (F. HOFFMANN-LA ROCHE AG, priority 1996, dated 1997).
